Values quoted from earlier work in patent publication US20190142979A1, “CONTRAST MEDIUM AND METHODS INVOLVED IN PREPARATION FOR THE DETERMINATION OF PATENCY OF CONDUITS” (priority 2016, published 2019).

In the case of `CCN(CC)CC(=O)Nc1c(C)cccc1C` [Lidocaine], the “alteration of fertility levels” value (post administration) is given as “not reported” and the safety (upon injection into uterine cavity or into peritoneal cavity) is given as “highly safe”.
